Data from US4814353A, “Therapeutic and prophylactic agent for gastritis” (Eisai Co., Ltd., priority 1985, dated 1989).

Legend:
Solubility = format: physicochemical
[1] = Clinical instances, acute gastritis, peroral teprenone (symptoms, endoscopy, side effects); format: in vivo, human; conditions: 150 mg per day perorally; for subjective symptoms: acute gastritis, 3 days after administration; for endoscopy, lesion of tunica mucosa ventriculi: 5 days after administration
Source text: (§1) Specific clinical instances will be illustrated to substantiate the effect of the present invention. In the clinical instances, "teprenone" refers to a compound according to the present invention (teprenone is 6,10,14,18-tetramethyl-;b 5,9,13,17-nonadecatetraen-2-one with n=4 in the general formula (I)).
person: actute gastritis
The instance is concerned with a person who visited a hospital while mainly complaining of epigastralgia.
The subjective symptoms included not only severe epigastralgia but also medium nausea, emesis, anorexia, slight pyrosis, abdominal flatulence, abdominal oppression, gastric dysphoria, and eructation.
150 mg per day of teprenone, which is a compound according to the present invention, was perorally administered to the patient.
person: acute gastritis
The conditions of te patient before administration were as follows.
The subjective symptoms included severe epigastralgia, anorexia, medium pyrosis, nausea, emesis, abdominal flatulence, gastric dysphoria, slight abdominal oppression, and eructation.
In endoscopy before administration, lesion of tunica mucosa ventriculi was recognized in the vestibulum (paries anterior venticuli, curvatura ventriculi minor, paries posterior ventriculi) and angularis (paries anterior ventriculi, curvatura ventriculi minor, paries posterior ventriculi).
(§2) 150 mg per day of teprenone, which is the compound according to the present invention, was perorally administered to the patient.

[2] = Clinical instances, acute animus state/stage of chronic gastritis, peroral teprenone (symptoms, endoscopy, side effects); format: in vivo, human; conditions: 150 mg per day perorally
Source text: as §1
person: acute animus state of chronic gastritis
The conditions of the patient before administration were as follows.
The patient complained of subjective symptoms including severe pyrosis, eructation, and slight nausea and emesis. Lesion of mucosa ventriculi was endoscopically recognized in the curvature ventriculi major of the vestibulum.
as §2
(§3) person: acute animus stage of chronic gastritis
The conditions of the patient before administration were as follows. The patient complained of medium epigastralgia, slight abdominal oppression, gastric dysphoria, and anorexia. Lesion of tunica mucosa ventriculi was endoscopically recognized in the curvatura ventriculi minor of the angularis and the curvatura ventriculi minor of the corpus ventriculi.
as §3
The subjective symptoms included epigastralgia, pyrosis, abdominal oppression, gastric dysphoria, and eructation. The levels of them were all medium.
Endoscopically, lesion was recognized in the vestibulum (paries anterior ventriculi, curvatura ventriculi minor, paries posterior ventriculi).

[3] = Acute toxicity test, mouse (ICR); conditions: in vivo
Source text: (§4) |Acute Toxicity LD50 (mg/μg)

[4] = Acute toxicity test, rat (SD); conditions: in vivo
Source text: as §4

[5] = Acute toxicity test, dog (beagle); conditions: in vivo, po, male, peroral
Source text: as §4

[6] = Clinical Instance 5, after two weeks

CC(=O)CCC=C(C)CCC=C(C)CCC=C(C)CCC=C(C)C (mixture of isomers) [3:2 mixture of (5E,9E,13E)-6,10,14,18-tetramethyl-5,9,13,17-nonadecatetraen-2-one and (5Z,9E,13E)-6,10,14,18-tetramethyl-5,9,13,17-nonadecatetraen-2-one]
solubility in organic solvents (Solubility; organic solvents): soluble in organic solvents
solubility in water (Solubility; water): hardly soluble in water

CC(=O)CCC=C(C)CCC=C(C)CCC=C(C)CCC=C(C)C [teprenone, 6,10,14,18-tetramethyl-5,9,13,17-nonadecatetraen-2-one]
subjective symptoms ([1]; Clinical Instance 1, person): all the symptons disappeared
observation of clinical inspection ([1]; Clinical Instance 1): no abnormality was recognized
side effects ([1]; Clinical Instance 1): no side effect altogether
endoscopy, lesion of tunica mucosa ventriculi ([1]; Clinical Instance 1): disappearance of the lesion of the tunica mucosa ventriculi was recognized
subjective symptoms ([1]; Clinical Instance 3, person): all the symptoms disappeared
observation of clinical inspection ([1]; Clinical Instance 3): no lesion was recognized
side effects ([1]; Clinical Instance 3): no side effects altogether
endoscopy, lesion of tunica mucosa ventriculi ([1]; Clinical Instance 3): disappearance of the lesion of tunica mucosa ventriculi was recognized
subjective symptoms ([2]; Clinical Instance 2, person, chronic gastritis, 3 days after administration): all the symptoms disappeared
side effects, including observation of clinical inspection ([2]; Clinical Instance 2): No side effects were recognized altogether
endoscopy, lesion of tunica mucosa ventriculi ([2]; Clinical Instance 2, 16 days after administration): disappearance of the lesion of tunica mucosa ventriculi was recognized
subjective symptoms ([2]; Clinical Instance 4, person, chronic gastritis, 3 days after administration): substantially all the symptoms disappeared except that slight epigastralgia remained
side effects, including observation of clinical inspection ([2]; Clinical Instance 4): No side effects were recognized altogether
epigastralgia ([2]; Clinical Instance 4, 5 days after administration): the epigastralgia also disappeared
endoscopy, lesion of tunica mucosa ventriculi ([2]; Clinical Instance 4, 14 days after administration): disappearance of the lesion of tunica mucosa ventriculi was recognized
subjective symptoms ([2]; Clinical Instance 5, person, chronic gastritis, 3 days after administration): the abdominal oppression, the gastric dysphoria, and the eructation were mitigated, but the epigastralgia and the pyrosis remained unchanged
side effects ([2]; Clinical Instance 5): No side effects were regonized
subjective symptoms ([2]; Clinical Instance 5, a week after administration): all the symptoms disappeared except for slight eructation
endoscopy, lesion of tunica mucosa ventriculi [2, 6]: the lesion of tunica mucosa ventriculi disappeared in all parts
eructation [2, 6]: The eructation remained
LD50 ([3]; im, female, intramuscular): > 5000 mg/kg
LD50 ([3]; im, male, intramuscular): > 5000 mg/kg
LD50 ([3]; ip, female, intraperitoneal): 3850 mg/kg
LD50 ([3]; ip, male, intraperitoneal): 3750 mg/kg
LD50 ([3]; po, female, peroral): > 15000 mg/kg
LD50 ([3]; po, male, peroral): > 15000 mg/kg
LD50 ([3]; sc, female, subcutaneous): > 10000 mg/kg
LD50 ([3]; sc, male, subcutaneous): > 10000 mg/kg
LD50 ([4]; im, female, intramuscular): > 5000 mg/kg
LD50 ([4]; im, male, intramuscular): > 5000 mg/kg
LD50 ([4]; ip, female, intraperitoneal): 3500 to 5000 mg/kg
LD50 ([4]; ip, male, intraperitoneal): > 5000 mg/kg
LD50 ([4]; po, female, peroral): > 15000 mg/kg
LD50 ([4]; po, male, peroral): > 15000 mg/kg
LD50 ([4]; sc, female, subcutaneous): > 10000 mg/kg
LD50 ([4]; sc, male, subcutaneous): > 10000 mg/kg
LD50 [5]: > 1000 mg/kg
